ChEMBL document CHEMBL1128170, “Stereochemistry of the benzodiazepine based Ras farnesyltransferase inhibitors” (Bioorg Med Chem Lett, 1995)

Molecular target: Protein farnesyltransferase (Rattus norvegicus, UniProt Q02293+Q04631)
Experiment: Tested for inhibitory activity against rat brain p21ras Ras Farnesyltransferase (FTase)

Compound | IC50 [nM]
CSCC[C@H](NC(=O)CN1C(=O)[C@H](N(C)C(=O)[C@@H](N)CS)N=C(c2ccccc2)c2ccccc21)C(=O)O (stereo in doubt; form 2) | 0.85
CSCC[C@H](NC(=O)CN1C(=O)[C@H](N(C)C(=O)[C@@H](N)CS)N=C(c2ccccc2)c2ccccc21)C(=O)O (stereo in doubt; form 3) | 2.1
CSCC[C@@H](NC(=O)CN1C(=O)[C@H](N(C)C(=O)[C@@H](N)CS)N=C(c2ccccc2)c2ccccc21)C(=O)O | 80
CSCC[C@H](NC(=O)CN1C(=O)[C@H](N(C)C(=O)[C@@H](N)CS)N=C(c2ccccc2)c2ccccc21)C(=O)O (stereo in doubt; form 1) | 370
